Blank lines part the entries; values can stand above or below the molecule they belong to.
Tests used:
Format in all cases: biochemical
[1] = target: T1, chDHRSX (Chinese hamster DHRSX) (Cricetulus griseus, UniProt A0A9J7GKV7); test: LC-MS of polyprenal-18 formation, Michaelis-Menten fit; details: 4 μM polyprenol mixture, pH 8.0, 37 °C, PC/PE lipids
T1 construct: gene LOC113838539; N-terminal 6xHis tag, pET15b, E. coli BL21(DE3), HisTrap native purification
T1 sequence (A0A9J7GKV7 1-328): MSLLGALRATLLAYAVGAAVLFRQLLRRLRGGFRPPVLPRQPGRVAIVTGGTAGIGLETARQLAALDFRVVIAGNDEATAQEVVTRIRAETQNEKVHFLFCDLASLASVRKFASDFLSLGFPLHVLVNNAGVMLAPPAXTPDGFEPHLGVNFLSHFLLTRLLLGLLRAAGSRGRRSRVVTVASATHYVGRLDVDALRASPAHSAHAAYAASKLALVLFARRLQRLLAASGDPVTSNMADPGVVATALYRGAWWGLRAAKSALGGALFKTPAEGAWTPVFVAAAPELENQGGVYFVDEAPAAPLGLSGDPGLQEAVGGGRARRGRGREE
From the text: LC-MS of polyprenal-18 formation, Michaelis-Menten fit on chDHRSX (Chinese hamster DHRSX)

hDHRSX (human DHRSX) [2] = target: T2, hDHRSX (human DHRSX) (Homo sapiens, UniProt Q8N5I4); test: LC-MS of polyprenal-18 formation in membranes; details: polyprenol mixture 5 μg/ml, 5 mM NAD+, pH 8.0, 37 °C, 2 h
T2 construct: pUB83 hDHRSX-N-His lentiviral expression in DHRSX-null Lec5 and Lec9 CHO cells; membrane preparation
T2 sequence (Q8N5I4 2-330): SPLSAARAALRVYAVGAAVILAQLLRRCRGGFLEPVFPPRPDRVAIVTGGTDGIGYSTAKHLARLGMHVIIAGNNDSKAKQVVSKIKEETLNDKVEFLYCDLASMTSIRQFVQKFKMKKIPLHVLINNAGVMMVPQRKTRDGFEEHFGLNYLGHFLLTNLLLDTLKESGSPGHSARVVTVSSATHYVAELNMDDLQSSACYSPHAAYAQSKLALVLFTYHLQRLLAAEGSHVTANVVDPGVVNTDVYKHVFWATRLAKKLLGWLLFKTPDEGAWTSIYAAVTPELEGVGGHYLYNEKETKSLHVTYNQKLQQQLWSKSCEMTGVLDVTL

[3] = target: T1, chDHRSX (Chinese hamster DHRSX); test: LC-MS of dolichol-18 formation, Michaelis-Menten fit; details: 4 μM dolichal mixture, pH 8.0, 37 °C, PC/PE lipids
From the text: LC-MS of dolichol-18 formation, Michaelis-Menten fit on chDHRSX (Chinese hamster DHRSX)

hDHRSX (human DHRSX) [4] = target: T2, hDHRSX (human DHRSX); test: LC-MS of dolichol-18 formation in membranes; details: dolichal mixture 5 μg/ml, 5 mM NADPH, pH 8.0, 37 °C, 2 h

- Km ([1]; read-out: NADP^+): 96 ± 43 µM
SMILES: NC(=O)c1ccc[n+]([C@@H]2O[C@H](COP(=O)(O)OP(=O)(O)OC[C@H]3O[C@@H](n4cnc5c(N)ncnc54)[C@H](OP(=O)(O)O)[C@@H]3O)[C@@H](O)[C@H]2O)c1 [NADP^+]

- Km ([1]; read-out: NAD^+): 81 ± 36 µM
SMILES: NC(=O)c1ccc[n+]([C@@H]2O[C@H](COP(=O)(O)OP(=O)(O)OC[C@H]3O[C@@H](n4cnc5c(N)ncnc54)[C@H](O)[C@@H]3O)[C@@H](O)[C@H]2O)c1 [NAD^+]
- LC-MS of polyprenal-18 formation in membranes (hDHRSX (human DHRSX) [2]): expression of hDHRSX in Lec5 and Lec9 cells increased the formation of polyprenal

- Km ([3]; read-out: NADPH): 26 ± 8 µM
SMILES: NC(=O)C1=CN([C@@H]2O[C@H](COP(=O)(O)OP(=O)(O)OC[C@H]3O[C@@H](n4cnc5c(N)ncnc54)[C@H](OP(=O)(O)O)[C@@H]3O)[C@@H](O)[C@H]2O)C=CC1 [NADPH]
- LC-MS of dolichol-18 formation in membranes (hDHRSX (human DHRSX) [4]): expression of hDHRSX strongly increased dolichol formation

- Km ([3]; read-out: NADH): 34 ± 7 µM
SMILES: NC(=O)C1=CN([C@@H]2O[C@H](COP(=O)(O)OP(=O)(O)OC[C@H]3O[C@@H](n4cnc5c(N)ncnc54)[C@H](O)[C@@H]3O)[C@@H](O)[C@H]2O)C=CC1 [NADH]

Reference: paper PMC11607601, “Absence of the dolichol synthesis gene DHRSX leads to N-glycosylation defects in Lec5 and Lec9 Chinese hamster ovary cells” (The Journal of Biological Chemistry, 2024)
